Test results as given in patent US9073851B2, “Compositions and methods for treating cancer” (Board of Regents, The University of Texas System, priority 2011, dated 2015).

How the values were obtained:
breast cancer cells = experiment: Cell viability assay, breast cancer cell panel or cell line not stated; type: cell-based, human
Source text: (§1) (aka proliferation assay, in this case MTS assay was used. MTS, MTT, XTT all similar assays often used as cell viability/toxicity assay). Cell viability in response to compounds such as 5NT and KD06 was studied with a tetrazolium/formazan based assay (MTS, Celltiter 96 aqueous one solution cell proliferation assay, Promega, WI) [Akar U, Chaves-Reyez A, Barria g Tari A, Sanguino A, Kondo Y, Kondo S, Arun B, Lopez-Berestein G, Ozpolat B: Silencing of Bcl-2 expression by small interfering RNA induces autophagic cell death in MCF-7 breast cancer cells. Autophagy 2008, 4:669-679, Ozpolat 2007 MCR]. Cells were seeded in 96 wells plates at a density of 1.5 to 3.0×10^3 cells per well in 100 μl of medium. Next day the medium was removed and cells were treated with the drug in 100 μl of medium for 72 hours. Plates were read at 490 nm wavelength in an Elisa plate reader (Kinetic Microplate Reader, Molecular Devices Corporation, Sunnyvale, Calif.).

5-HT1B/1D receptor = experiment: cAMP levels; type: cell-based
MCF10A = experiment: MTS cell viability assay on normal breast epithelium; type: cell-based, human; conditions: at IC50 to IC90 doses in breast cancer cells (MCF7)
Source text: as §1

[1] = system: 5-HT1B or 5-HT1D receptor; experiment: Effect on cell proliferation after siRNA knockdown of 5-HT1B or 5-HT1D receptor; type: cell-based
MDA-MB-231 cells [2] = experiment: Clonogenic survival assay; type: cell-based, human; conditions: paclitaxel 2 nM + CaMK-III siRNA
Protocol: (§2) To study the effect of CaMK-III growth of ER(−) and ER(+) breast cancer cells we performed a clonogenic assay, which is based on the ability of a single cell to grow into a colony (Franken N A, et al. Nat Protoc 2006: 1:2315-9), using MDA-MB-231 and MCF-7 cells, respectively. Cells were transfected with either CaMK-III or control siRNA (50 nM) […] over a period of two weeks.
(§3) This assay is an in vitro cell survival assay based on the ability of a single cell to grow into a colony. Briefly, cells (500 cells/well) were transfected with control siRNA or CaMK-III siRNA every week and grown for 2 to 3 weeks. Cells were stained with crystal violet and colonies were counted. Each experiment was repeated twice.
This assay is an in vitro cell survival assay based on the ability of a single cell to grow into a colony. Briefly, cells (500 cells/well) were transfected with different siRNA as described above and at 48 h post-transfection, cells were trypsinized and seeded into 6-well plates in the medium (500 cells/mL). Cells were transfected with control siRNA or CaMK-III siRNA every week and grown for 2 to 3 weeks. Cells were stained with crystal violet and colonies cells were counted. Each group was assayed in triplicate dishes, and each experiment was repeated twice.

ERK (p42/p44) and LC3-II = experiment: Western blot of p-ERK and LC3-II after 5-HT1B antagonists; type: cell-based, human; conditions: for phosphorylation of ERK (p42/p44): Western blot
Protocol: After treatment the cells were trypsinized and collected by centrifugation, and whole-cell lysates were obtained using a lysis buffer as described previously [Akar U, et al. Mol Cancer Res 2007: 5:241-249]. Total protein concentration was determined using a DC protein assay kit (Bio-Rad, Hercules, Calif.). Aliquots containing […] of total protein from each sample were subjected to sodium dodecyl sulfate-polyacrylamide gel electrophoresis (SDS-PAGE) with a 4-20% gradient and electrotransferred to nitrocellulose membranes. The membranes were blocked with 5% dry milk in Tris-buffered saline-Tween 20 (TBST), probed with primary antibodies anti EREK1/2 or p-ERK1/2 (Cell signaling), polyclonal LC3 antibody (Novus biologicals, Littleton, Colo.). The antibodies were diluted in TBST containing 2.5% dry milk and incubated at 4 C overnight. After the membranes were washed with TBST, they were incubated with horseradish peroxidase-conjugated anti-rabbit or anti-mouse secondary antibody (Amersham Life Science, Cleveland, Ohio). Mouse anti-actin and donkey anti-mouse secondary antibodies (Sigma Chemical, St. Louis, Mo.) were used to monitor-actin expression to ensure equal loading of proteins. Chemiluminescent detection was performed with Chemi-glow detection reagents (Alpha Innotech, San Leandro, Calif.). The blots were visualized with a FluorChem 8900 imager and quantified by a densitometer using the Alpha Imager application program (Alpha Innotech, San Leandro, Calif.).

MCF7 cells = experiment: MTS cell viability/proliferation assay; type: cell-based, human
Source text: (§4) Viable and dead cells were detected by the trypan blue exclusion assay, where viable cells (non-stained) with intact membrane are able to exclude the dye, while dead cells take up the coloring blue agent from the media. To quantitatively assess the viability and/or proliferation of cells a MTS assay was used, which incorporates a redox indicator that changes color in response to metabolic activity. To study cell viability in response to CaMK-III siRNA or control siRNA and plasmid encoding CaMK-III or empty plasmid transfection cells were seeded in 96-well plates at a density of 3×10^3 cells per well in 100 μl of medium. Next day the medium was removed and cells were transfected with siRNA at different concentrations in 100 μl of medium plus transfection mix. Two days after transfection, the medium was removed and replaced by 180 μl of medium plus 20 μl of MTS and the cells were incubated under normal conditions until the color changed. Plates were read at dual wavelengths (570-595 nm) in an Elisa plate reader (Kinetic Microplate Reader, Molecular Devices Corporation, Sunnyvale, Calif.).
as §1

MCF7 breast cancer cells = experiment: Acridine orange staining of acidic vesicular organelles (autophagy), FACS; type: cell-based, human; conditions: for percentage of acridine orange positive cells: flow cytometry, control untreated cells 2%
Source text: To determine the role of serotonin 5-HT1B receptor in cell survival and the mechanism of growth inhibition induced by HT1B inhibitors we investigated cell death in breast cancer cells. When 5-HT1B was inhibited by either SB224289 or SB216641 we detected marked induction of autophagy (FIG. 28A) as detected by acridine orange staining, apoptosis by Annexin V and necrosis by propidium iodide (PI) staining and FACS analysis (FIG. 28B) in MCF7 breast cancer cells. Induction of acidic vacuoles by acridine orange staining was also observed in MDA-MB231 cells after SB224289 treatment for 72 hours (p<0.05) (FIG. 28C).
(§5) To detect and quantify acidic vesicular organelles, we stained cells with acridine orange as described previously.^31 The number of acridine orange-positive cells was determined by fluorescence-activated cell sorting (FACS) analysis. Cell morphology was examined using fluorescence microscopy (Nikon, Melville, N.Y.) with the cells remaining in their culture flasks.

MDA-MB-231 cells [3] = experiment: Annexin V staining and FACS analysis of apoptosis; type: cell-based, human
Protocol: To investigate whether inhibition of CaMK-III sensitizes drug (doxorubicin)-resistant MCF7/DoxR and MDA-MB-231 cells to chemotherapy, cells were treated with either CaMK-III (50 nM) or control siRNA (50 nM) for 24 hours and then with doxorubicin (ED50 dose) for 48 hours. The ED50 of doxorubicin was determined from a dose-escalation study in a proliferation assay. […] To determine the percent of cells undergoing apoptosis in response to doxorubicin alone and in combination with CaMK-III siRNA was detected by Annexin V staining and FACS analysis.
(§6) Apoptosis was assessed by an Annexin V assay, monitoring PARP and caspase 9 cleavage by Western blot. To provide a comparative assay of apoptosis by Annexin V labeling, tumor cells (1×10^6) treated with CaMK-III siRNA or control siRNA for 24 to 96 hours were harvested and washed with PBS. Cells were resuspended in binding buffer and stained with Annexin V and propidium iodide (PI) according to the manufacturer's protocol (BD Pharmingen Annexin V kit, San Diego, Calif.). Positive cells were detected and quantified by FACS analysis.

[4] = system: ER+ MCF-7 breast cancer cells; experiment: Cell proliferation on serotonin treatment (cell counting); type: cell-based, human
[5] = system: STAT3, Bcl-2 and PI3K/Akt pathways; experiment: Signaling pathways after SB-224289 in breast cancer cells; type: cell-based; conditions: preliminary studies
MCF-7 cells [6] = experiment: Apoptosis / cell death in MCF-7 cells (Annexin V, FACS); type: cell-based, human; conditions: Annexin V, MCF cells
Protocol: as §6

MDA-MB-231 cells [7] = experiment: MTS cell viability/proliferation assay; type: cell-based, human; conditions: MTS assay, MB-231
Source text: Viable and dead cells were detected by the trypan blue exclusion assay, the viability and/or proliferation of cells a MTS assay was used [Akar U, et al. Autophagy 2008: 4:669-79].
as §4, with “Two days after transfection, the medium was removed and replaced by 180 μl of medium plus 20 μl of MTS and the cells were incubated under normal conditions until the color changed.” left out
(aka proliferation assay, in this case MTS assay was used. MTS, MTT, XTT all similar assays often used as cell viability/toxicity assay). […] Plates were read at 490 nm wavelength in an Elisa plate reader (Kinetic Microplate Reader, Molecular Devices Corporation, Sunnyvale, Calif.).

[8] = mouse, in vivo
MCF7 and MDA-MB231 cells = experiment: Acridine orange autophagy assay with MEK inhibitor PD98059; type: cell-based, human
Protocol: as §5

MCF7/Dox resistant cells = experiment: MTS cell viability/proliferation assay; type: cell-based, human; conditions: MTS assay
Source text: as §4, §1

MCF-7 cells [9] = experiment: Clonogenic survival assay; type: cell-based, human; conditions: various concentrations over two weeks, vs untreated
Protocol: as §2, §3
To study the effect of 5-HT1B on the survival and colony formation of breast cancer cells a clonogenic survival assay was performed using various concentrations of […] over a period of two weeks. This assay is based on the ability of a single cell to grow into a colony [Franken N A, et al. Nat Protoc 2006: 1:2315-2319]. […] Cell death and detachment as well as reduced cell number was observed.
This assay is an in vitro cell survival assay based on the ability of a single cell to grow into a colony. […] Cells were stained with crystal violet and colonies cells were counted. […]

For CCCCCCCCCCCCOc1ccc2[nH]cc(CCN)c2c1.Cl [KD06], the “potency relative to 5-NT” value (breast cancer cells) was “more potent than 5-NT”, the “cell survival (O.D.) in a large panel of breast cancer cells” value (breast cancer cells; incl. MDA-468, BT20, MDa-MB231, SKBR3, MDA-MB435, T47D, ZR75.1) was “effective against almost all breast cancer cell lines” and the cAMP levels (5-HT1B/1D receptor) was “decrease cAMP levels”. The “toxicity against normal breast epithelium” value (MCF10A) was “not toxic” and the “effect of compound after knockdown of 5-HT1B or 5-HT1D receptor” value [1] was “blunts the effect”.

For CC(=O)O[C@H]1C(=O)[C@@]2(C)[C@H]([C@H](OC(=O)c3ccccc3)[C@]3(O)C[C@H](OC(=O)[C@H](O)[C@@H](NC(=O)c4ccccc4)c4ccccc4)C(C)=C1C3(C)C)[C@]1(OC(C)=O)CO[C@@H]1C[C@@H]2O [paclitaxel], the “inhibition of colony formation by paclitaxel with CaMK-III siRNA” value (MDA-MB-231 cells [2]) was “enhances efficacy”.

In the case of COc1ccc(NC(=O)c2ccc(-c3ccc(-c4noc(C)n4)cc3C)cc2)cc1OCCN(C)C [SB216641], the “phosphorylation of ERK (p42/p44)” value (ERK (p42/p44) and LC3-II) is reported as “induced phosphorylation of ERK (p42/p44)”, the cell viability (MCF7 cells; antagonist alone) is reported as 31% and the cell viability (MCF7 cells; with 3-MA, p<0.05) is reported as 71%. The “percentage of acridine orange positive cells” value (MCF7 breast cancer cells) was 17%.

In the case of COc1cccc2c1C(=O)c1c(O)c3c(c(O)c1C2=O)C[C@@](O)(C(=O)CO)C[C@@H]3O[C@H]1C[C@H](N)[C@H](O)[C@H](C)O1 [doxorubicin], the “apoptosis induced by doxorubicin (Annexin V positive cells)” value (MDA-MB-231 cells [3]; doxorubicin alone, 48 h) is reported as 5% and the “apoptosis induced by doxorubicin (Annexin V positive cells)” value (MDA-MB-231 cells [3]; doxorubicin with CaMK-III siRNA) is reported as 55%.

With NCCc1c[nH]c2ccc(O)cc12 [Serotonin, 5-hydroxytryptamine] the cell proliferation [4] was “induced proliferation”.

In the case of Cc1nc(-c2ccc(-c3ccc(C(=O)N4CCc5cc6c(cc54)C4(CCN(C)CC4)CO6)cc3)c(C)c2)no1 [SB224289], the “STAT3, Bcl-2 and PI3K/Akt pathways” value [5] is reported as “inhibits the STAT3 and Bcl-2 pathways, as well as the PI3K/Akt pathway”, the induction of apoptosis (MCF-7 cells [6]) is reported as “induced apoptosis in a dose dependent manner” and the “inhibition of cell proliferation” value (MDA-MB-231 cells [7]) is reported as “dose-dependent inhibition”. For the same compound, the “LC3-II, marker of autophagy” value (ERK (p42/p44) and LC3-II; MCF7 and MCF7/Dox-R cells) was “induction of LC3-II”, the “phosphorylation of ERK (p42/p44)” value (ERK (p42/p44) and LC3-II) was “induced phosphorylation of ERK (p42/p44)” and the toxicity in mice [8] was “quite toxic in mice”. For the same compound, the “percent positive cells with autophagy” value (MCF7 and MDA-MB231 cells; antagonist alone) was 29.2%, the “percent positive cells with autophagy” value (MCF7 and MDA-MB231 cells; with ERK inhibitor (MEK inhibitor PD98059)) was 18% and the EC50 (MCF7 cells; Homo sapiens, MCF7, MCF cells) was 4.4 µM. For the same compound, the “inhibition of cell proliferation” value (MCF7 cells; MTS assay) was “dose-dependent inhibition”, the cell viability (MCF7 cells; antagonist alone) was 42% and the cell viability (MCF7 cells; with 3-MA, p<0.05) was 61%. For the same compound, the “inhibition of cell proliferation” value (MCF7/Dox resistant cells) was “dose-dependent inhibition”, the incidence of autophagy (MCF7 breast cancer cells; antagonist alone) was 22.4% and the “percentage of acridine orange positive cells” value (MCF7 breast cancer cells) was 23%. For the same compound, the incidence of autophagy (MCF7 breast cancer cells; with 3-MA) was 12% and the colony formation (MCF-7 cells [9]) was “grew more slowly and produced fewer colonies”.
